Measured values from patent publication US4500731A, “Derivatives of 4-phenyl-4-oxobuten-2-oic acid, pharmaceutical compositions containing them, and therapeutic uses for them” (Roussel Uclaf, priority 1981, dated 1985).

Tests used:
gastric secretions = experiment: anti-gastric secretion activity (Shay, pylorus-ligated rats), total acidity of gastric juice; assay type: in vivo, rat (male); details: 10 mg/kg, intraduodenally, 3 hours
Procedure: (1) Determination of the anti-gastric secretion activity
The technique used is described by H. SHAY et al. in Gastroenterology, 5, 43, (1945).
Male rats were used weighing about 200 g (10 animals per lot) which had been without food for 48 hours but were allowed an 8% glucose solution ad libitum. After the rats were slightly anesthetized with ether, the pylorus of each was ligated. After the end of the operation, the compound to be tested was administered intraduodenally in different doses, or in the case of the control animals, a 0.5% solution of carboxymethylcellulose was administered intraduodenally, after which the abdominal incision was sutured.
Three hours later, the animals were sacrificed and their stomachs removed, after ligating the esophagus. The gastric juice was removed and centrifuged. The volume of gastric juice was then determined and the total acidity was established by titrating a 100 μl sample of gastric juice to a pH of 7 by means of 1/10 N aqueous sodium hydroxide solution.
The percentages of variation in total acidity between gastric secretions of the test and control animals were calculated, with the results appearing below.

[1] = system: stress ulcers in the stomachs of rats; experiment: anti-ulcer activity, stress ulcer (stress and cold); assay type: in vivo, rat (female); details: 10 mg/kg, by esophageal tube
Procedure: (2) Determination of anti-ulcer activity
The technique consists in inducing ulcers in the stomachs of rats by stress (stress and cold). The technique used is described by E. C. SENAY and R. J. LEVINE, Proc. Soc. Exp. Biol., 124, 1221 (1967).
Female rats of 150 g were used (5 animals per lot) which have fasted for 48 hours with water ad libitum and glucose solution for 8 hours. The animals were given the compound being tested, or 0.5% solution of carboxymethylcellulose for the control animals, by esophageal tube. Two hours later the animals were bundled in a jacket of netting. Their paws were tied and the entire unit was placed in a refrigerator at 8° C. for two hours. The rats were released and killed with ether.
Their stomachs were opened along the greater curvature and examined with a binocular magnifier. The seriousness of the lesions was rated from 0 to 3 for each stomach.
For each lot of the rats, the average intensity of the ulcerations was determined. The degree of ulceration for the test animals was determined and compared with the control animals for each lot.

acute toxicity (LD50) = details: mouse, in vivo, po; orally in mice
Procedure: (3) Determination of acute toxicity
The LD50 was evaluated after administration of the products orally in mice.

| SMILES | Anti-secretion activity: Acid conc. (% variation as compared with the controls) (gastric secretions) | Anti-ulcer activity: Ulceration (% variation as compared with the controls) [1] | LD50 (acute toxicity (LD50)) |
| --- | --- | --- | --- |
| COc1cc(C(=O)/C=C/C(=O)O)ccc1O [Example 1, (E) 4-(3-methoxy-4-hydroxyphenyl)-4-oxobuten-2-oic acid] | -90% | -89% | 1000 mg/kg |
| O=C(O)/C=C/C(=O)c1ccc2c(c1)OCCO2 [Example 2, (E) 4-(2,3-dihydrobenzodioxine-6-yl)-4-oxobuten-2-oic acid] | -41% | -33% | 750 mg/kg |
